Reference: patent US5006468A, “Novel urease and method of producing the same” (Suntory Limited, priority 1987, dated 1991)

Test system: urease produced by Arthrobacter mobilis SAM0752 (FERM BP-2127)
Assay: Km value for urea of the purified urease
Assay type: biochemical
Settings: 0.1M acetic acid buffer (pH 4.5), 37° C.
Description: The activity was determined by measuring the amount of ammonia produced by decomposition of urea during the enzyme reaction per unit of time. In particular, 0.025 ml of an enzyme solution was added to a reaction solution containing 0.2 ml of a 0.1M acetic acid buffer (pH 4.5) and 0.025 ml of a 0.1M urea solution, followed by incubation at 37° C. for a given time (10 to 20 minutes). The reaction was terminated by adding 0.025 ml of a 33% trichloroacetic acid solution. […] of the reaction solution was added to 1 ml of a coloring solution which had been prepared by mixing 10 ml of a 0.3M phosphate buffer (pH 7.5), 0.56 ml of 25 mg/ml o-phthalaldehyde in ethanol, and 0.56 ml of 5 mg/ml 2-mercaptoethanol in ethanol. After allowing the thus-obtained mixture to stand for 45 minutes at room temperature, the increase in absorbance at a wavelength of 410 nm was measured. The enzyme activity was then calculated from a calibration curve which was formed using predetermined amounts of ammonium chloride as a reference substance. This method was based on the method by Heini et al. [Eur. J. Biochem., 162, 541 (1987)]. The activity unit of the enzyme was defined as the amount of ammonia produced in terms of μ mol/min.

**Q.** How did the Km (20% ethanol added) turn out when NC(N)=O [urea] was run?
**A.** ~3.7 mM

**Q.** What about the Km (no ethanol added) of the same compound?
**A.** ~3.6 mM
